Experimental data from US20200392158A1, “INHIBITORS OF LEUCINE RICH REPEAT KINASE 2” (GLAXOSMITHKLINE INTELLECTUAL PROPERTY DEVELOPMENT LIMITED, priority 2017, published 2020).
pIC50: −log10 of the molar value.

Key:
[1] = target: T1, LRRK2 kinase in SH-SY5Y cells over-expressing recombinant full length LRRK2 (Homo sapiens, UniProt Q5S007); experiment: Recombinant cellular LRRK2 AlphaScreen assay (LRRK2 Ser935 phosphorylation); assay type: cell-based; settings: 60 min
T1 construct: A BacMam virus expressing full length recombinant LRRK2 was purchased from Invitrogen; host or cells: SH-SY5Y human neuroblastoma cells transduced with BacMam LRRK2 virus
Summary of the method: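 Read-out is AlphaScreen of LRRK2 pSer935 over total LRRK2 in lysates of SH-SY5Y cells over-expressing full-length LRRK2 via BacMam (24 h transduction). Cells were exposed 60 min at 37 °C to an 11-point 1-in-4 dilution series starting at 10 uM; sigmoidal fit.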

[2] = target: T2, full length G2019 human LRRK2 (Homo sapiens, UniProt Q5S007, R50H); experiment: Full length G2019 human LRRK2 inhibition mass spectrometry assay; assay type: biochemical; settings: LRRKtide to phospho-LRRKtide conversion, RapidFire MS, 2 mM ATP
T2 construct: made in house; host or cells: HEK293 6E cells transduced with BacMam virus (virus generated in Sf9 cells)
Summary of the method: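 Inhibition taken as reduced LRRKtide phosphorylation, quantified by RapidFire-coupled triple-quadrupole MS as product/(product+substrate) peak area. Reaction: 2 mM ATP, 25 μM peptide, ~25 nM full-length G2019 Flag-LRRK2, Hepes pH 7.2 buffer, room temperature for 1 h. 11-point 1-in-4 dilutions from 100 μM; logistic fit gives IC50, reported as pIC50.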

T2 sequence (Q5S007 with tags, fused parts or gaps R50H): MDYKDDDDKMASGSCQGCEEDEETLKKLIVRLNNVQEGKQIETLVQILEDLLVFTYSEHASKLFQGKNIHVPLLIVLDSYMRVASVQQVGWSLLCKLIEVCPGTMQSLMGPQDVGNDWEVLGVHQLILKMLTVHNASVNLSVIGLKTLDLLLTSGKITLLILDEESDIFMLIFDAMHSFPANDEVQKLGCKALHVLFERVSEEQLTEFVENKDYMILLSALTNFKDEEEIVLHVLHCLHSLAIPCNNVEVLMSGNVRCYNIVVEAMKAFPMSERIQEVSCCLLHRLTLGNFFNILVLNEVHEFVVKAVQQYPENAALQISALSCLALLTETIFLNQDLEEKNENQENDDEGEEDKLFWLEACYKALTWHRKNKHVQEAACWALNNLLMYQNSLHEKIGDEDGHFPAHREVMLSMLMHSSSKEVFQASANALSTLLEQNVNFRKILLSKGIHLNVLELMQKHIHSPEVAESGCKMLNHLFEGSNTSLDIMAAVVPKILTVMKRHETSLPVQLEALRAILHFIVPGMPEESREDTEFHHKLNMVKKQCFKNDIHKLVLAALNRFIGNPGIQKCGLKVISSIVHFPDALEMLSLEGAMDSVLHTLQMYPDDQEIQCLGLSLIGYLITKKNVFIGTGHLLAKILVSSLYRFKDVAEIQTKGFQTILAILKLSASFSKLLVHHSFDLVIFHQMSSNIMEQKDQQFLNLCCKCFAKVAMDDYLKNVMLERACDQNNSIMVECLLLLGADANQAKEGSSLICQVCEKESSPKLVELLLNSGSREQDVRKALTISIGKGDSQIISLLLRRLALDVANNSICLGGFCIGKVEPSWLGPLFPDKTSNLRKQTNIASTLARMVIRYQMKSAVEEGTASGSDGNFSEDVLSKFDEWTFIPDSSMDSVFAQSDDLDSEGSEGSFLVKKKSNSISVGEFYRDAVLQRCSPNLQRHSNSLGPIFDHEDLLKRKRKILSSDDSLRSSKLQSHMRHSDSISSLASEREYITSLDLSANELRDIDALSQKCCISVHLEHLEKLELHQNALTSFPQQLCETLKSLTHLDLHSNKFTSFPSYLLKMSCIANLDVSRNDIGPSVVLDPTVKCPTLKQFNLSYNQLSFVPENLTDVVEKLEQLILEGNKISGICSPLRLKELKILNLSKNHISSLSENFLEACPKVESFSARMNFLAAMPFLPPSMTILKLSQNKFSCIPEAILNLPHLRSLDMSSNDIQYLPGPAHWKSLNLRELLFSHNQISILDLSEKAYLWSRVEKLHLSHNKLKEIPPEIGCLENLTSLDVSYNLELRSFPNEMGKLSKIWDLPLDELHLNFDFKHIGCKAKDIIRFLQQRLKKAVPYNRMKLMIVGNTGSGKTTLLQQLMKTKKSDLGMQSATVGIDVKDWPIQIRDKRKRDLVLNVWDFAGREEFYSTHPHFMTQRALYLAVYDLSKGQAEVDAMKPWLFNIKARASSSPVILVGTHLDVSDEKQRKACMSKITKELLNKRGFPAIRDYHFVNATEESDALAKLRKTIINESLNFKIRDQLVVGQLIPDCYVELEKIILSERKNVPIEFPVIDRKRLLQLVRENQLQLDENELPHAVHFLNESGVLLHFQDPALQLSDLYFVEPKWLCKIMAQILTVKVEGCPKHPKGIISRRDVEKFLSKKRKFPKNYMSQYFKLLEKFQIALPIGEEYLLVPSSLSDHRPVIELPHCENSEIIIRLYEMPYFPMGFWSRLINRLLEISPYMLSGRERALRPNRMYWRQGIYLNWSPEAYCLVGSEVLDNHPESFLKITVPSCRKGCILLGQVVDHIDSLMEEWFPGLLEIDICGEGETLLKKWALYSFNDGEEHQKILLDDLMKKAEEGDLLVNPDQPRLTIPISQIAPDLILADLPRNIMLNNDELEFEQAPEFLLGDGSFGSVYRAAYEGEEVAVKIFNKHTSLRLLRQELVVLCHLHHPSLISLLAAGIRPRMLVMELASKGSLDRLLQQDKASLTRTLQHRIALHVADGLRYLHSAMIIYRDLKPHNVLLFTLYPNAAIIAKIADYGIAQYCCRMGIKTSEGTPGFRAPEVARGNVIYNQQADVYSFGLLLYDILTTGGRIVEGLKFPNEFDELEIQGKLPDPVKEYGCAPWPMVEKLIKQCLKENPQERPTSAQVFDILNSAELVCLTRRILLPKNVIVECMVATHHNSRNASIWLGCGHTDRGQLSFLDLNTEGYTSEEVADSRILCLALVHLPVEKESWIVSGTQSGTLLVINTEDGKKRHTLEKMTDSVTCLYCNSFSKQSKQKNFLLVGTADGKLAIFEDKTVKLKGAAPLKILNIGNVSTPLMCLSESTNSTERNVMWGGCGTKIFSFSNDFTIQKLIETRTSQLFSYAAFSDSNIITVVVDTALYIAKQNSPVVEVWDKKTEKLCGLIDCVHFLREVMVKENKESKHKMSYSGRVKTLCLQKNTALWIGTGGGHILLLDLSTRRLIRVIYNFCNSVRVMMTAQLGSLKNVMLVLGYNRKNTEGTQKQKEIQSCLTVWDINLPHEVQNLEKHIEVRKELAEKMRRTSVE
T1 sequence (Q5S007 whole entry): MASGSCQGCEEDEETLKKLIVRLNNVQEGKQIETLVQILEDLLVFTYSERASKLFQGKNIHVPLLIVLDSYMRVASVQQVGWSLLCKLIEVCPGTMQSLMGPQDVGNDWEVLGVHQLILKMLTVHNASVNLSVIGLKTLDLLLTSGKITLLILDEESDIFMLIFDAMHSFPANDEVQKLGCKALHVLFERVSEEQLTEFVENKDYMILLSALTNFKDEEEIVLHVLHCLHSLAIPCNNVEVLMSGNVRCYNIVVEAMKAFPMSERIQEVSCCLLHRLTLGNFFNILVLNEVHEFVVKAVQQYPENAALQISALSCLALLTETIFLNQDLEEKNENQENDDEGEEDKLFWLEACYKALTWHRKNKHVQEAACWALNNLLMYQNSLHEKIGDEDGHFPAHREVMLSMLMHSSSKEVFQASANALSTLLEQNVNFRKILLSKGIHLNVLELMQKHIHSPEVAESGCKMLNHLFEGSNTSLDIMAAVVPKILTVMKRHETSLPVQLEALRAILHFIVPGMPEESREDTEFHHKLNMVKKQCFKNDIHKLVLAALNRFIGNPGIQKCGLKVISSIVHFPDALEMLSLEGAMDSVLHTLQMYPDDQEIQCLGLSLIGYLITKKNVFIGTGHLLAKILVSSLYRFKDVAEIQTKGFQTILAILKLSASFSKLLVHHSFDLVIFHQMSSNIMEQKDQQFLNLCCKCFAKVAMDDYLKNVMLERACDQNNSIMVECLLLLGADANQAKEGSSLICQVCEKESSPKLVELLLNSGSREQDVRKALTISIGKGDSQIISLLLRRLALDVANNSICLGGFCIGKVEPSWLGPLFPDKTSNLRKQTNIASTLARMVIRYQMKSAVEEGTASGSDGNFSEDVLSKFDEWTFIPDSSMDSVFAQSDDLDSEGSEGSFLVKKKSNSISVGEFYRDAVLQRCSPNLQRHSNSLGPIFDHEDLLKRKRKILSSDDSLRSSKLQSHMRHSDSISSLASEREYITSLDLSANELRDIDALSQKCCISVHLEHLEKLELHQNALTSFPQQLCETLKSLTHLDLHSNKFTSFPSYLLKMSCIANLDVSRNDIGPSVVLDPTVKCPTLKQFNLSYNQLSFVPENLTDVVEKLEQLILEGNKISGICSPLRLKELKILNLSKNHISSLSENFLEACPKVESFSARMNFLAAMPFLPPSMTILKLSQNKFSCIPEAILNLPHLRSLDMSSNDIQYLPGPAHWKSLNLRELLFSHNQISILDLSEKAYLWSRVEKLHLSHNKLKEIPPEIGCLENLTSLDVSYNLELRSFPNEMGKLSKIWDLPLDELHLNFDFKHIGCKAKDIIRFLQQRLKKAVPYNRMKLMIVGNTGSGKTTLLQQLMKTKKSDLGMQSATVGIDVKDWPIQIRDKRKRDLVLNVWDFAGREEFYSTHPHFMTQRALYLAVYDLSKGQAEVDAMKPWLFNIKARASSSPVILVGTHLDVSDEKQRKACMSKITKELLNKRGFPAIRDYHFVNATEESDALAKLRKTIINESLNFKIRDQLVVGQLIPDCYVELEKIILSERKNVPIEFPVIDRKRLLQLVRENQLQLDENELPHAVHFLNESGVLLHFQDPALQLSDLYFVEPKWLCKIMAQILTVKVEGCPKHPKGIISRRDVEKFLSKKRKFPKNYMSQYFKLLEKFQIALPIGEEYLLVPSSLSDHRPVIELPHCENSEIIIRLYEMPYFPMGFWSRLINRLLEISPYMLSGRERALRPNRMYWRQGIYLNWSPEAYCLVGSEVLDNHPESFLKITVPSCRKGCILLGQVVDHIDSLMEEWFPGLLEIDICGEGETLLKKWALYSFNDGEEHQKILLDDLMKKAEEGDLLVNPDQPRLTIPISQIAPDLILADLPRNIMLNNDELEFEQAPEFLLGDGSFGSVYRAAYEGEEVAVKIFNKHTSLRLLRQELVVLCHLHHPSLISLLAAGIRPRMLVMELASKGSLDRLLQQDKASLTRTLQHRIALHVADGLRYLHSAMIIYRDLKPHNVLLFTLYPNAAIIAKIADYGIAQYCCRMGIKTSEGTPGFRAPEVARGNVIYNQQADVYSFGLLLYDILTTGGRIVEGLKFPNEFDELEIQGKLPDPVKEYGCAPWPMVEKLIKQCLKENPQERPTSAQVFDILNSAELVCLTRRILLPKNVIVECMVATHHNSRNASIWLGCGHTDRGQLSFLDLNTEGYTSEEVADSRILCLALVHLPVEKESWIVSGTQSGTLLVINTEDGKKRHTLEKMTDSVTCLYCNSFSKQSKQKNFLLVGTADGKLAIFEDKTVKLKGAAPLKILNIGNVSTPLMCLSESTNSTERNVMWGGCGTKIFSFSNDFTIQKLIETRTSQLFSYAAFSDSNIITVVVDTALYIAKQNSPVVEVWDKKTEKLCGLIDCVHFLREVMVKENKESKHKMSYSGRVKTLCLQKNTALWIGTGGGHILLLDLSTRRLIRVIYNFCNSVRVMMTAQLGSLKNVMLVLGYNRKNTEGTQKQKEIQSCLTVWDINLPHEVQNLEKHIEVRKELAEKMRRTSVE

Row | SMILES | pIC50 [1] | pIC50 [2]
1 | Cc1c2c(nn1C1CN(C3COC3)C1)OCC[C@@H](C)Nc1nc(ncc1Cl)N2 [E107, (11R)-14-chloro-4,11-dimethyl-5-[1-(oxetan-3-yl)azetidin-3-yl]-8-oxa-2,5,6,12,16,17-hexaazatricyclo[11.3.1.0^3,7]heptadeca-1(16),3,6,13(17),14-pentaene] | ≥ 7.00 | ≥ 7.00
2 | Cc1c2c(nn1C1CCOCC1)OCCCCNc1nc(ncc1Cl)N2 [E109, 15-Chloro-4-methyl-5-(oxan-4-yl)-8-oxa-2,5,6,13,17,18-hexaaza tricyclo[12.3.1.0^3,7]octadeca-1(17),3,6,14(18),15-pentaene] | ≥ 7.00 | ≥ 7.00
3 | Cc1c2c(nn1C1CCOCC1)OCCCOc1nc(ncc1Cl)N2 [E110, 14-Chloro-4-methyl-5-(oxan-4-yl)-8,12-dioxa-2,5,6,16,17-pentaazatricyclo[11.3.1.0^3,7]heptadeca-1(16),3,6,13(17),14-pentaene] | ≥ 7.00 | ≥ 7.00
4 | FC(F)c1c2c(nn1C1CCOCC1)OCCCNc1nc(ncc1Cl)N2 [E112, 4-Chloro-4-(difluoromethyl)-5-(oxan-4-yl)-8-oxa-2,5,6,12,16,17-hexaazatricyclo[11.3.1.0^3,7]heptadeca-1(16),3,6,13(17),14-pentaene] | ≥ 7.00 | ≥ 7.00
5 | COCCn1nc2c(c1C)Nc1ncc(Cl)c(n1)NCCCO2 [E116, 14-Chloro-5-(2-methoxyethyl)-4-methyl-8-oxa-2,5,6,12,16,17-hexaazatricyclo[11.3.1.0^3,7]heptadeca-1(16),3,6,13(17),14-pentaene] | ≥ 7.00 | ≥ 7.00
6 | Cc1c2c(nn1C1CCOCC1)OCCCOc1nc(ncc1C(F)(F)F)N2 [E117, 4-Methyl-5-(oxan-4-yl)-14-(trifluoromethyl)-8,12-dioxa-2,5,6, 16,17-pentaazatricyclo[11.3.1.0^3,7]heptadeca-1(16),3,6,13(17),14-pentaene] | ≥ 7.00 | ≥ 7.00
7 | FC(F)(F)c1cnc2nc1NCCCOc1nn(C3CCCOC3)cc1N2 (centres unmarked) [E130, 5-(Oxan-3-yl)-14-(trifluoromethyl)-8-oxa-2,5,6,12,16,17-hexaaza tricyclo[11.3.1.0^3,7]heptadeca-1(16),3,6,13(17),14-pentaene] | ≥ 7.00 | ≥ 7.00
8 | Cc1c2c(nn1C1CCOCC1)OCCCNc1cc(ncc1Cl)N2 [E134, 14-Chloro-4-methyl-5-(oxan-4-yl)-8-oxa-2,5,6,12,16-pentaaza tricyclo[11.3.1.0^3,7]heptadeca-1(16),3,6,13(17),14-pentaene] | ≥ 7.00 | ≥ 7.00
9 | CCOC(=O)C(C)(C)n1nc2c(c1C)Nc1ncc(Cl)c(n1)NCCCO2 [E188] | ≥ 7.00 | ≥ 7.00
10 | Cc1c2c(nn1C(C)(C)C(=O)O)OCCCNc1nc(ncc1Cl)N2 [E189, 2-{14-Chloro-4-methyl-8-oxa-2,5,6,12,16,17-hexaazatricyclo [11.3.1.0^3,7]heptadeca-1(16),3,6,13(17),14-pentaen-5-yl}-2-methylpropanoic acid] | < 5.00 | ≥ 5.00
11 | Cc1c2c(nn1C(C)(C)C#N)OCCCNc1nc(ncc1Cl)N2 [E191, 2-{14-Chloro-4-methyl-8-oxa-2,5,6,12,16,17-hexaazatricyclo [11.3.1.0^3,7]heptadeca-1(16),3,6,13(17),14-pentaen-5-yl}-2-methylpropanenitrile] | ≥ 7.00 | ≥ 7.00
12 | Cc1c2c(nn1CC(F)(F)F)OCCCNc1nc(ncc1Cl)N2 [E266, 14-Chloro-4-methyl-5-(2,2,2-trifluoroethyl)-8-oxa-2,5,6,12,16,17-hexaazatricyclo[11.3.1.0^3,7]heptadeca-1(16),3,6,13(17),14-pentaene] | ≥ 7.00 | ≥ 7.00
13 | Cc1c2c(nn1C1CC3(COC3)C1)OCC[C@@H](C)Nc1nc(ncc1Cl)N2 [E301, (11R)-14-Chloro-4,11-dimethyl-5-{2-oxaspiro[3.3]heptan-6-yl}-8-oxa-2,5,6,12,16,17-hexaazatricyclo[11.3.1.0^3,7]heptadeca-1(17),3,6,13,15-pentaene] | ≥ 7.00 | ≥ 7.00
14 | Cc1c2c(nn1C1CC(N3C[C@@H]4C[C@H]3CO4)C1)OCCCNc1nc(ncc1Cl)N2 (stereo partly drawn) [E311, 14-Chloro-4-methyl-5-{3-[(1S,4S)-2-oxa-5-azabicyclo[2.2.1]heptan-5-yl]-cyclobutyl}-8-oxa-2,5,6,12,16,17-hexaazatricyclo [11.3.1.0^3,7]heptadeca-1(16),3,6,13(17),14-pentaene] | ≥ 7.00 | ≥ 7.00
15 | Cc1c2c(nn1C1CC(N3CCC(F)(F)C3)C1)OCCCNc1nc(ncc1Cl)N2 (centres unmarked) [E312, 14-Chloro-5-[3-(3,3-difluoropyrrolidin-1-yl)cyclobutyl]-4-methyl-8-oxa-2,5,6,12,16,17-hexaazatricyclo[11.3.1.0^3,7] heptadeca-1(16),3,6,13(17),14-pentaene] | ≥ 7.00 | 4.00
16 | Cc1c2c(nn1C1CC(N3C[C@H]4C[C@@H]3CO4)C1)OCC[C@@H](C)Nc1nc(ncc1Cl)N2 (stereo partly drawn) [E317, (11R)-14-Chloro-4,11-dimethyl-5-{3-[(1R,4R)-2-oxa-5-azabicycle [2.2.1]heptan-5-yl]cyclobutyl}-8-oxa-2,5,6,12,16,17-hexaaza tricyclo[11.3.1.0^3,7]heptadeca-1(16),3,6,13(17),14-pentaene] | ≥ 7.00 | ≥ 7.00
17 | Cc1c2c(nn1C(=O)C1CCOCC1)OCCCNc1nc(ncc1Cl)N2 [E363, 14-Chloro-4-methyl-5-(oxane-4-carbonyl)-8-oxa-2,5,6,12,16,17-hexaazatricyclo[11.3.1.0^3,7]heptadeca-1(16),3,6,13(17),14-pentaene] | ≥ 7.00 | ≥ 5.00
18 | Cc1c2c(nn1C1CN(C3CCOCC3)C1)OCC[C@@H](C)Nc1nc(ncc1Cl)N2 [E365, (11R)-14-Chloro-4,11-dimethyl-5-[1-(oxan-4-yl)azetidin-3-yl]-8-oxa-2,5,6,12,16,17-hexaazatricyclo[11.3.1.0^3,7]heptadeca-1(16), 3,6,13(17),14-pentaene] | ≥ 7.00 | ≥ 7.00
19 | Cc1c2c(nn1C1CN(C3CCOCC3)C1)OCCCNc1nc(ncc1Cl)N2 [E366, 14-Chloro-4-methyl-5-[1-(oxan-4-yl)azetidin-3-yl]-8-oxa-2,5,6,12, 16,17-hexaazatricyclo[11.3.1.0^3,7]heptadeca-1(16),3,6,13(17),14-pentaene] | ≥ 7.00 | ≥ 7.00
20 | Cc1c2c(nn1C1CCOCC1)OCCCNc1nc(ncc1Br)N2 [E367, 14-Bromo-4-methyl-5-(oxan-4-yl)-8-oxa-2,5,6,12,16,17-hexaaza tricyclo[11.3.1.0^3,7]heptadeca-1(16),3,6,13(17),14-pentaene] | ≥ 7.00 | ≥ 7.00
21 | Cc1c2c(nn1C1CC(O)C1)OCC[C@@H](C)Nc1nc(ncc1Cl)N2 (stereo partly drawn) [E375, 3-[(11R)-14-Chloro-4,11-dimethyl-8-oxa-2,5,6,12,16,17-hexaazatricyclo[11.3.1.0^3,7]heptadeca-1(16),3,6,13(17),14-pentaen-5-yl]cyclobutan-1-ol] | ≥ 7.00 | ≥ 7.00
22 | Cc1c2c(nn1C1CC(O)C1)OCC[C@@H](C)N(C)c1nc(ncc1Cl)N2 (stereo partly drawn) [E376, 3-[(11R)-14-Chloro-4,11,12-trimethyl-8-oxa-2,5,6,12,16,17-hexaazatricyclo[11.3.1.0^3,7]heptadeca-1(16),3,6,13(17),14-pentaen-5-yl] cyclobutan-1-ol] | ≥ 7.00 | ≥ 7.00
